EC50 data for 40 molecules are collected here from patent US12421193B2, “GPR52 modulators and methods of use” (Neurocrine Biosciences, Inc., priority 2020, dated 2025).

Where a name gives a salt, the structure may show the parent alone. A value given as a limit tells only on which side of the number the result lay.

This assay deals with T1, recombinant human GPR52 (Homo sapiens, UniProt Q9Y2T5).
T1 construct: expressed in transfected cells
T1 sequence (Q9Y2T5 whole entry): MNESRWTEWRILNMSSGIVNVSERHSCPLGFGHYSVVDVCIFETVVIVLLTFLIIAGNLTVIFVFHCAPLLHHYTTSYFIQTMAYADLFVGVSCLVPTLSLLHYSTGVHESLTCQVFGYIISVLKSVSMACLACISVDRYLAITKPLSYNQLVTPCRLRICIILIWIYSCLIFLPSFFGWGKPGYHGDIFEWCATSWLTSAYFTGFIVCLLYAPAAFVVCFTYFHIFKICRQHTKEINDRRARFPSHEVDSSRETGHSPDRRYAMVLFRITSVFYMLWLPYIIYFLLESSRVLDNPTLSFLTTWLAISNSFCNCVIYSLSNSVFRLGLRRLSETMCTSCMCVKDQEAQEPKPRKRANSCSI
In words: TR-FRET cAMP assay (LANCE Ultra cAMP Kit), GPR52 activity. The format is cell-based. The following applies: Flp-In-CHO cells stably expressing recombinant human GPR52; cAMP production, normalized to the positive control. Here is the method:
TR-FRET cAMP assays were performed using commercially available assay kits (LANCE™ Ultra cAMP Kit). Controls and compounds were solubilized in DMSO using ½ log dilution to generate duplicate 10-point dose response curves in 384-well polypropylene compound plates. Sixty nanoliters of the diluted compounds were transferred into 384-well NBS assay plates and further diluted to 1× with the addition of 2000 cells per well. Flp-In™—CHO cells that stably express recombinant human GPR52.
Cells were harvested with cell stripper and resuspended in Stimulation Buffer (5 mM HEPES, 0.1% bovine serum albumin (BSA), 0.5 mM IBMX, pH 7.4). After thirty minutes incubation at room temperature, detection reagents were added to each well. Plates were then incubated for 30 minutes at room temperature. The LANCE™ Ultra cAMP assay uses time-resolved fluorescence resonance energy transfer (TR-FRET) to detect cAMVP production; this signal was quantified using a Pherastar multi-mode plate reader.
Dose-response curves were generated from the fluorescence counts normalized to the positive control. E EC50 values were obtained using a nonlinear regression curve-fitting program.
A general note: TR-FRET usually uses a lanthanide donor and a delayed reading to cut background.
Usually EC50 stands for the midpoint of the concentration-response curve. In the case of `Cc1cccc(OCc2ccnc(-c3ccc(C(N)=O)c(C)c3)c2)c1` [Example 38, 4-[4-(3-methylphenoxymethyl)pyridin-2-yl]-2-methyl benzamide], the EC50 fell in the range of 25 to 100 nM.
The result for `Cc1cc(-c2cc(COc3cc(F)c(F)c(Cl)c3)ccn2)ccc1C(N)=O` [Example 54, 4-[4-(3-chloro-4,5-difluorophenoxymethyl)pyridin-2-yl]-2-methylbenzamide] reads less than 25 nM; that for `Cc1cc(-c2cc(COc3cccc(F)c3F)ccn2)ccc1C(N)=O` [Example 52, 4-[4-(2,3-difluorophenoxymethyl)pyridin-2-yl]-2-methylbenzamide], 25 to 100 nM; that for `Cc1cc(-c2ccnc(COc3ccc4c(cnn4C)c3)c2)ccc1C(N)=O` [Example 87, 4-(2-{[(1-methyl-1H-indazol-5-yl)oxy]methyl}pyridin-4-yl)-2-methyl-benzamide], 101 to 1000 nM.
The result for `NC(=O)c1ccc(-c2cc(COc3ccc(C(F)(F)F)cc3)ccn2)cc1C(F)(F)F` [Example 78, 4-{4-[4-(trifluoromethyl)phenoxymethyl]pyridin-2-yl}-2-(trifluoromethyl)benzamide] reads 25 to 100 nM; that for `Cc1cc(-c2cc(COc3cc(F)c(F)c(F)c3)ccn2)ccc1C(N)=O` [Example 57, 4-[4-(3,4,5-trifluorophenoxymethyl)pyridin-2-yl]-2-methyl benzamide], less than 25 nM.
For `CC(=O)c1ccc(OCc2ccnc(-c3ccc(C(N)=O)c(C)c3)c2)cc1F` [Example 60, 4-[4-(4-acetyl-3-fluorophenoxymethyl)pyridin-2-yl]-2-methylbenzamide] the value was less than 25 nM; for `Cc1cc(-c2ccnc(COc3ccc4c(c3)OCC4)c2)ccc1C(N)=O` [Example 88, 4-{2-[(2,3-dihydro-1-benzofuran-6-yloxy)methyl]pyridin-4-yl}-2-methylbenzamide], less than 25 nM.
As to `COc1ccc(OCc2ccnc(-c3ccc(C(N)=O)c(C)c3)c2)c(Cl)c1` [Example 22, 4-[4-(2-chloro-4-methoxyphenoxymethyl)pyridin-2-yl]-2-methylbenzamide], the EC50 was less than 25 nM.
For `COc1cc(OCc2ccnc(-c3ccc(C(N)=O)c(C)c3)c2)ccc1F` [Example 61, 4-[4-(4-fluoro-3-methoxyphenoxymethyl)pyridin-2-yl]-2-methylbenzamide] the value was less than 25 nM; for `COc1cc(OCc2cncc(-c3ccc(C(N)=O)c(C)c3)c2)ccc1C(F)(F)F` [Example 101, 4-{5-[3-methoxy-4-(trifluoromethyl)phenoxymethyl]pyridin-3-yl}-2-methylbenzamide], 101 to 1000 nM.
The result for `CC(=O)c1cccc(OCc2ccnc(-c3ccc(C(N)=O)c(C)c3)c2)c1` [Example 43, 4-[4-(3-acetylphenoxymethyl)pyridin-2-yl]-2-methylbenzamide] reads 101 to 1000 nM; that for `Cc1cc(-c2cc(COc3cc(Cl)cc(Cl)c3)ccn2)ccc1C(N)=O` [Example 20, 4-[4-(3,5-dichlorophenoxymethyl)pyridin-2-yl]-2-methylbenzamide], less than 25 nM; that for `Cc1cc(-c2cc(COc3cc(F)cc(F)c3)ccn2)ccc1C(N)=O` [Example 15, 4-[4-(3,5-difluorophenoxymethyl)pyridin-2-yl]-2-methylbenzamide], 25 to 100 nM.
For `Cc1cc(F)ccc1OCc1ccnc(-c2ccc(C(N)=O)c(C)c2)c1` [Example 29, 4-[4-(4-fluoro-2-methylphenoxymethyl)pyridin-2-yl]-2-methylbenzamide] the value was 101 to 1000 nM.
In the case of `CC(=O)Nc1cccc(OCc2ccnc(-c3ccc(C(N)=O)c(C)c3)c2)c1` [Example 35, 4-[4-(3-acetamidophenoxymethyl)pyridin-2-yl]-2-methylbenzamide], the EC50 fell in the range of 101 to 1000 nM.
The result for `Cc1cc(-c2cc(COc3ccccc3)ccn2)ccc1C(N)=O` [Example 25, 4-[4-(phenoxymethyl)pyridin-2-yl]-2-methylbenzamide] reads 101 to 1000 nM.
For `Cc1cc(-c2cc(COc3ccnc(C(F)(F)F)c3)ccn2)ccc1C(N)=O` [Example 11, 4-[4-({[2-(trifluoromethyl)pyridin-4-yl]oxy}methyl)pyridin-2-yl]-2-methyl benzamide], the EC50 lay within 101 to 1000 nM.
For `COc1ccc(OCc2ccnc(-c3ccc(C(N)=O)c(C)c3)c2)cc1` [Example 30, 4-[4-(4-methoxyphenoxymethyl)pyridin-2-yl]-2-methylbenzamide] the value was 101 to 1000 nM; for `Cc1cc(-c2cc(COc3ccccc3C(F)(F)F)ccn2)ccc1C(N)=O` [Example 3, 4-{4-[2-(trifluoromethyl)phenoxymethyl]pyridin-2-yl}-2-methyl benzamide], 101 to 1000 nM; for `Cc1ccc(OCc2ccnc(-c3ccc(C(N)=O)c(C)c3)c2)c(Cl)c1` [Example 44, 4-[4-(2-chloro-4-methylphenoxymethyl)pyridin-2-yl]-2-methylbenzamide], less than 25 nM.
For `COc1ccc(OCc2ccnc(-c3ccc(C(N)=O)c(C)c3)c2)c2ccccc12` [Example 19, 4-(4-{[(4-methoxynaphthalen-1-yl)oxy]methyl}pyridin-2-yl)-2-methylbenzamide] the value was 101 to 1000 nM; for `Cc1cc(-c2cc(COc3cc(F)c(Cl)c(F)c3)ccn2)ccc1C(N)=O` [Example 56, 4-[4-(4-chloro-3,5-difluorophenoxymethyl)pyridin-2-yl]-2-methylbenzamide], less than 25 nM.
The result for `Cc1ccc(OCc2ccnc(-c3ccc(C(N)=O)c(C)c3)c2)cc1Cl` [Example 18, 4-[4-(3-chloro-4-methylphenoxymethyl)pyridin-2-yl]-2-methylbenzamide] reads less than 25 nM; that for `Cc1cc(OCc2ccnc(-c3ccc(C(N)=O)c(C)c3)c2)ccc1F` [Example 27, 4-[4-(4-fluoro-3-methylphenoxymethyl)pyridin-2-yl]-2-methylbenzamide], 101 to 1000 nM.
Turning to `Cc1cc(-c2cc(COc3ccc(C#N)c(F)c3F)ccn2)ccc1C(N)=O` [Example 9, 4-[4-(4-cyano-2,3-difluorophenoxymethyl)pyridin-2-yl]-2-methylbenzamide], the EC50 lay in the range of 101 to 1000 nM.
For `Cc1cc(-c2cc(COc3ccc(F)c(C#N)c3)ccn2)ccc1C(N)=O` [Example 7, 4-[4-(3-cyano-4-fluorophenoxymethyl)pyridin-2-yl]-2-methylbenzamide] the value was 101 to 1000 nM.
For `Cc1cc(-c2cc(COc3ccc(C(F)(F)F)cc3)ccn2)ccc1C(N)=O` [Example 1, 4-{4-[4-(trifluoromethyl)phenoxymethyl]pyridin-2-yl}2-methyl-benzamide hydrochloride] the value was 25 to 100 nM.
For `COc1cc(OCc2ccnc(-c3ccc(C(N)=O)c(C)c3)c2)ccc1C#N` [Example 55, 4-[4-(4-cyano-3-methoxyphenoxymethyl)pyridin-2-yl]-2-methylbenzamide] the value was less than 25 nM; for `Cc1ccc(OCc2cncc(-c3ccc(C(N)=O)c(C)c3)c2)cc1F` [Example 89, 4-[5-(3-fluoro-4-methylphenoxymethyl)pyridin-3-yl]-2-methylbenzamide], 25 to 100 nM; for `Cc1cc(-c2cc(COc3ccc4ccccc4c3)ccn2)ccc1C(N)=O` [Example 42, 4-{4-[(naphthalen-2-yloxy)methyl]pyridin-2-yl}-2-methylbenzamide], 25 to 100 nM.
For the molecule `N#Cc1ccc(OCc2ccnc(-c3ccc(C(N)=O)c(Cl)c3)c2)cc1F` [Example 77, 4-[4-(4-cyano-3-fluorophenoxymethyl)pyridin-2-yl]-2-chlorobenzamide], the concentration for a half-maximal effect (EC50) lay within 25 to 100 nM.
For `Cc1cc(-c2cncc(COc3ccc4cnn(C)c4c3)c2)ccc1C(N)=O` [Example 95, 4-(5-{[(1-methyl-1H-indazol-6-yl)oxy]methyl}pyridin-3-yl)-2-methylbenzamide] the value was greater than 1000 nM.
The result for `Cc1cc(-c2cc(COc3cccc(C(F)(F)F)c3)ccn2)ccc1C(N)=O` [Example 2, 4-{4-[3-(trifluoromethyl)phenoxymethyl]pyridin-2-yl}-2-methyl benzamide] reads less than 25 nM; that for `CC(=O)c1ccc(OCc2ccnc(-c3ccc(C(N)=O)c(C)c3)c2)cc1C` [Example 13, 4-[4-(4-acetyl-3-methylphenoxymethyl)pyridin-2-yl]-2-methylbenzamide], less than 25 nM.
The result for `Cc1cc(-c2cc(COc3cccc(C)c3C)ccn2)ccc1C(N)=O` [Example 41, 4-[4-(2,3-dimethylphenoxymethyl)pyridin-2-yl]-2-methylbenzamide] reads 101 to 1000 nM; that for `Cc1cc(-c2cc(COc3cccc(CC#N)c3)ccn2)ccc1C(N)=O` [Example 73, 4-{4-[3-(cyanomethyl)phenoxymethyl]pyridin-2-yl}-2-methylbenzamide], 101 to 1000 nM; that for `COc1cncc(OCc2ccnc(-c3ccc(C(N)=O)c(C)c3)c2)c1` [Example 74, 4-(4-{[(5-methoxypyridin-3-yl)oxy]methyl}pyridin-2-yl)-2-methylbenzamide], 101 to 1000 nM.
Take `Cc1cc(-c2cc(COc3cccc(Cl)c3F)ccn2)ccc1C(N)=O` [Example 50, 4-[4-(3-chloro-2-fluorophenoxymethyl)pyridin-2-yl]-2-methylbenzamide]: the EC50 lay in the range of 25 to 100 nM.
On to `COc1cc(OCc2ccnc(-c3ccc(C(N)=O)c(C)c3)c2)ccc1C(F)(F)F` [Example 58, 4-{4-[3-methoxy-4-(trifluoromethyl)phenoxymethyl]pyridin-2-yl}-2-methylbenzamide], for which the EC50 fell in the range of 25 to 100 nM.
